Results on three molecules are retold here after patent publication US8329716B2, “Hetaryloxy-substituted phenylamino pyrimidines as Rho kinase inhibitors” (Bayer Intellectual Property GmbH, priority 2004, dated 2012).

What is called IC50 is the concentration that gives 50% inhibition. The low end stands for higher potency, the high end for lower potency.

In this assay the test system is isolated saphenous artery of rabbits. The experiment in a line: Vessel-relaxing action in vitro, phenylephrine-induced contractions of isolated saphenous artery rings. The conditions noted are these: Oryctolagus cuniculus; concentration reducing phenylephrine-induced contraction of rabbit saphenous artery rings by 50% of control. As to the method: The inhibition of the enzyme is investigated in an in vitro assay with recombinant Rho kinase II. The vessel-relaxing action is determined using phenylephrine-induced contractions of isolated rings of the saphenous artery of rabbits.
Vessel-Relaxing Action In Vitro
Individual 3-mm-wide rings of the isolated saphenous artery of rabbits are introduced into 5 ml organ baths with Krebs-Henseleit solution (37° C., gassed with carbogen). The vessel tone is monitored isometrically and registered. Contractions are induced by addition of […] of phenylephrine/ml, which is washed out again after 4 min. After a number of control cycles, the rings are preincubated with the substance to be examined, with the dosage being increased for each further cycle, and the subsequent contraction is compared to the intensity of the last control contraction.
In turn, `Cc1c[nH]c2nccc(Oc3c(F)cc(Nc4cc(Cl)nc(N)n4)cc3F)c12` [Example 1, 6-Chloro-N^4-{3,5-difluoro-4-[(3-methyl-1H-pyrrolo[2,3-b]pyridin-4-yl)oxy]phenyl}pyrimidine-2,4-diamine] showed an IC50 of 67 nM. On to `Nc1nc(Nc2ccc(Oc3ccnc4[nH]cc(Cl)c34)c(F)c2)cc(C(F)(F)F)n1` [Example 9, N^4-{4-[(3-Chloro-1H-pyrrolo[2,3-b]pyridin-4-yl)oxy]-3-fluorophenyl}-6-(trifluoromethyl)pyrimidine-2,4-diamine], for which the IC50 is 45 nM. `N#Cc1c[nH]c2nccc(Oc3ccc(Nc4cc(C(F)(F)F)nc(N)n4)cc3F)c12` [Example 18, 4-(4-{[2-Amino-6-(trifluoromethyl)pyrimidin-4-yl]amino}-2-fluorophenoxy)-1H-pyrrolo[2,3-b]pyridin-3-carbonitrile] returned an IC50 of 19 nM.
